From patent US9006250B2, “4-amino-6-(heterocyclic)picolinates and 6-amino-2-(heterocyclic)pyrimidine-4-carboxylates and their use as herbicides” (Dow AgroSciences, LLC, priority 2013, dated 2015)

What was measured:
Type in all cases: in vivo
[1] = tested on: CYPDI: small-flower flatsedge, Cyperus difformis; assay: Postemergence herbicidal activity in direct seeded rice
Text: (§1) Seeds or nutlets of the desired test plant species were planted in a soil matrix prepared by mixing a loam soil (43 percent silt, 19 percent clay, and 38 percent sand, with a pH of about 8.1 and an organic matter content of about 1.5 percent) and river sand in an 80 to 20 ratio. The soil matrix was contained in plastic pots with a surface area of 139.7 cm^2. When required to ensure good germination and healthy plants, a fungicide treatment and/or other chemical or physical treatment was applied. The plants were grown for 10-17 d in a greenhouse with an approximate 14-h photoperiod which was maintained at about 29° C. during the day and 26° C. during the night. Nutrients and water were added on a regular basis and supplemental lighting was provided with overhead metal halide 1000-Watt lamps as necessary. The plants were employed for testing when they reached the second or third true leaf stage. A weighed amount, determined by the highest rate to be tested, of each test compound was placed in 25 mL glass vials and dissolved in a volume of 97:3 v/v acetone-DMSO to obtain 12× stock solutions. […] The concentrated stock solutions were added to the spray solutions so that the final acetone and DMSO concentrations were 16.2% and 0.5%, respectively. Spray solutions were diluted to the appropriate final concentrations with the addition of 10 mL of an aqueous mixture of 1.5% (v/v) Agri-dex crop oil concentrate. The final spray solutions contained 1.25% (v/v) Agri-dex crop oil concentrate. Compound requirements are based upon a 12 mL application volume at a rate of 187 L/ha. Formulated compounds were applied to the plant material with an overhead Mandel track sprayer equipped with […] nozzles calibrated to deliver 187 L/ha over an application area of 0.503 square meters (m^2) at a spray height of 18 inches ([…]) above average plant canopy height. Control plants were sprayed in the same manner with the solvent blank. The treated plants and control plants were placed in a greenhouse as described above and watered by sub-irrigation to prevent wash-off of the test compounds. After 20-22 days, the condition of the test plants, compared with that of the untreated plants, was determined visually and scored on a scale of 0 to 100 percent where 0 corresponds to no injury and 100 corresponds to complete kill. By applying the well-accepted probit analysis as described by J. Berkson in […], 48, 565 (1953) and by D. Finney in “Probit Analysis” Cambridge University Press (1952), the above data can be used to calculate GR20, GR50, GR80 and GR90 values, which are defined as growth reduction factors that correspond to the effective dose of herbicide required to kill or control 20 percent, 50 percent, 80 percent or 90 percent, respectively, of a target plant.

[2] = tested on: CYPIR: rice flatsedge, Cyperus iria; assay: as above
Text: as §1

[3] = tested on: ECHCG: barnyardgrass, Echinochloa crus-galli; assay: as above
Text: as §1

[4] = tested on: ECHCO: junglerice, Echinochloa colonum; assay: as above
Text: as §1

[5] = tested on: LEFCH: Chinese sprangletop, Leptochloa chinensis; assay: as above
Text: as §1

[6] = tested on: ORYSJ: Oryza sativa; assay: as above
Text: as §1

[7] = tested on: ORYSK: Oryza sativa; assay: as above
Text: as §1

[8] = tested on: SCPJU: Japanese bulrush, Scirpus juncoides; assay: as above
Text: as §1

[9] = tested on: AVEFA: wild oats (Avena fatua); assay: Post-Emergent Test I herbicidal activity; conditions: 4 Kg ai/ha
Protocol: (§2) Post-Emergent Test I: Seeds test species were obtained from commercial suppliers and planted into a 5″-round pot containing soil-less media mix (Metro-Mix 360®, Sun Gro Horticulture). Postemergence treatments were planted 8-12 days (d) prior to application and cultured in a greenhouse equipped with supplemental light sources to provide a 16 hour (h) photoperiod at 24-29° C. All pots were surface irrigated. Approximately 10 milligrams (mg) of each compound were dissolved in 1.3 mL acetone-DMSO (97:3, v/v) and diluted with 4.1 mL water-isopropanol-crop oil concentrate (78:20:2, v/v/v) containing 0.02% Triton X-155. Treatments were serial diluted with the above formulation solvent to provide 1.85, 0.926, 0.462 and 0.231 mg/mL of test compound delivered in 2.7 mL/pot (roughly equivalent to 4.0, 2.0, 1.0, and 0.5 kg/ha, respectively). Formulated compounds were applied using a DeVilbiss® compressed air sprayer at 2-4 pounds per square inch (psi). Following treatment, pots were returned to the greenhouse for the duration of the experiment. All pots were sub-irrigated as need to provide optimum growing conditions. All pots were fertilized one time per week by subirrigating with Peters Peat-Lite Special® fertilizer (20-10-20). Phytotoxicity ratings were obtained 10 days after treatment postemergence applications. All evaluations were made visually on a scale of 0 to 100 where 0 represents no activity and 100 represents complete plant death. Visual assessments of plant injury were made based on growth reduction, discoloration, leaf deformity and necrosis.

[10] = tested on: ECHCG: barnyardgrass (Echinochloa crus-galli); assay: Post-Emergent Test I herbicidal activity; conditions: 4 Kg ai/ha
Protocol: as §2

[11] = tested on: HELAN: sunflower (Helianthus annuus); assay: Post-Emergent Test I herbicidal activity; conditions: 4 Kg ai/ha
Protocol: as §2

[12] = tested on: IPOHE: ivyleaf morningglory (Ipomoea hederecea); assay: Post-Emergent Test I herbicidal activity; conditions: 4 Kg ai/ha
Protocol: as §2

[13] = tested on: SETFA: giant foxtail (Setaria faberi); assay: Post-Emergent Test I herbicidal activity; conditions: 4 Kg ai/ha
Protocol: as §2

[14] = dose for 50 percent control, probit analysis
[15] = dose for 80 percent control, probit analysis
[16] = dose for 90 percent control, probit analysis
[17] = dose for 20 percent growth reduction, probit analysis

Question: Which “Visual Growth Reduction (%) 21 Days After Application CYPDI” value ([1]; 17.5 g ai/ha) does the source give for `COC(=O)c1nc(-c2ccc3nsnc3c2)c(F)c(N)c1Cl` [Compound 11] here?
Answer: A (95-100)

Question: What about the “Visual Growth Reduction (%) 21 Days After Application CYPDI” value ([1]; 35 g ai/ha) of the same compound?
Answer: A (95-100)

Question: And the “Visual Growth Reduction (%) 21 Days After Application CYPDI” value ([1]; 70 g ai/ha)?
Answer: A (95-100)

Question: What about the “GR50 CYPDI” value [1, 14] of the same compound?
Answer: 6 g ai/ha

Question: And the “GR80 CYPDI” value [1, 15]?
Answer: 11 g ai/ha

Question: What about the “GR90 CYPDI” value [1, 16] of the same compound?
Answer: 16 g ai/ha

Question: And the “Visual Growth Reduction (%) 21 Days After Application CYPIR” value ([2]; 17.5 g ai/ha)?
Answer: G (0-29)

Question: What about the “Visual Growth Reduction (%) 21 Days After Application CYPIR” value ([2]; 35 g ai/ha) of the same compound?
Answer: E (45-59)

Question: And the “Visual Growth Reduction (%) 21 Days After Application CYPIR” value ([2]; 70 g ai/ha)?
Answer: F (30-44)

Question: And the “GR50 CYPIR” value [2, 14]?
Answer: 78 g ai/ha

Question: What about the “GR80 CYPIR” value [2, 15] of the same compound?
Answer: 212 g ai/ha

Question: What about the “GR90 CYPIR” value [2, 16] of the same compound?
Answer: 357 g ai/ha

Question: What about the “Visual Growth Reduction (%) 21 Days After Application ECHCG” value ([3]; 17.5 g ai/ha) of the same compound?
Answer: E (45-59)

Question: And the “Visual Growth Reduction (%) 21 Days After Application ECHCG” value ([3]; 35 g ai/ha)?
Answer: C (75-84)

Question: And the “Visual Growth Reduction (%) 21 Days After Application ECHCG” value ([3]; 70 g ai/ha)?
Answer: B (85-94)

Question: And the “GR50 ECHCG” value [3, 14]?
Answer: 6 g ai/ha

Question: And the “GR80 ECHCG” value [3, 15]?
Answer: 37 g ai/ha

Question: And the “GR90 ECHCG” value [3, 16]?
Answer: 98 g ai/ha

Question: What about the “Visual Growth Reduction (%) 21 Days After Application ECHCO” value ([4]; 17.5 g ai/ha) of the same compound?
Answer: E (45-59)

Question: And the “Visual Growth Reduction (%) 21 Days After Application ECHCO” value ([4]; 35 g ai/ha)?
Answer: D (60-74)

Question: And the “Visual Growth Reduction (%) 21 Days After Application ECHCO” value ([4]; 70 g ai/ha)?
Answer: C (75-84)

Question: What about the “GR50 ECHCO” value [4, 14] of the same compound?
Answer: 15 g ai/ha

Question: What about the “GR80 ECHCO” value [4, 15] of the same compound?
Answer: 107 g ai/ha

Question: What about the “GR90 ECHCO” value [4, 16] of the same compound?
Answer: 300 g ai/ha

Question: What about the “Visual Growth Reduction (%) 21 Days After Application LEFCH” value ([5]; 17.5 g ai/ha) of the same compound?
Answer: G (0-29)

Question: And the “Visual Growth Reduction (%) 21 Days After Application LEFCH” value ([5]; 35 g ai/ha)?
Answer: G (0-29)

Question: What about the “Visual Growth Reduction (%) 21 Days After Application LEFCH” value ([5]; 70 g ai/ha) of the same compound?
Answer: G (0-29)

Question: What about the “GR50 LEFCH” value [5, 14] of the same compound?
Answer: 114 g ai/ha

Question: What about the “GR80 LEFCH” value [5, 15] of the same compound?
Answer: 186 g ai/ha

Question: What about the “GR90 LEFCH” value [5, 16] of the same compound?
Answer: 239 g ai/ha

Question: And the “Visual Growth Reduction (%) 21 Days After Application ORYSJ” value ([6]; 17.5 g ai/ha)?
Answer: G (0-29)

Question: What about the “Visual Growth Reduction (%) 21 Days After Application ORYSJ” value ([6]; 35 g ai/ha) of the same compound?
Answer: G (0-29)

Question: What about the “Visual Growth Reduction (%) 21 Days After Application ORYSJ” value ([6]; 70 g ai/ha) of the same compound?
Answer: G (0-29)

Question: What about the “GR20 ORYSJ” value [6, 17] of the same compound?
Answer: >70 g ai/ha

Question: What about the “Visual Growth Reduction (%) 21 Days After Application ORYSK” value ([7]; 17.5 g ai/ha) of the same compound?
Answer: G (0-29)

Question: What about the “Visual Growth Reduction (%) 21 Days After Application ORYSK” value ([7]; 35 g ai/ha) of the same compound?
Answer: G (0-29)

Question: What about the “Visual Growth Reduction (%) 21 Days After Application ORYSK” value ([7]; 70 g ai/ha) of the same compound?
Answer: G (0-29)

Question: And the “GR20 ORYSK” value [7, 17]?
Answer: >70 g ai/ha

Question: And the “Visual Growth Reduction (%) 21 Days After Application SCPJU” value ([8]; 17.5 g ai/ha)?
Answer: A (95-100)

Question: What about the “Visual Growth Reduction (%) 21 Days After Application SCPJU” value ([8]; 35 g ai/ha) of the same compound?
Answer: A (95-100)

Question: And the “Visual Growth Reduction (%) 21 Days After Application SCPJU” value ([8]; 70 g ai/ha)?
Answer: A (95-100)

Question: What about the “GR50 SCPJU” value [8, 14] of the same compound?
Answer: 4 g ai/ha

Question: And the “GR80 SCPJU” value [8, 15]?
Answer: 9 g ai/ha

Question: What about the “GR90 SCPJU” value [8, 16] of the same compound?
Answer: 14 g ai/ha

Question: Which “Visual Growth Reduction (%) 10 Days After Application AVEFA” value [9] does the source give for `COC(=O)c1nc(-c2cc3nonc3cc2F)nc(N)c1OC` [Compound 10, Methyl 6-amino-2-(6-fluorobenzo[c][1,2,5]oxadiazol-5-yl)-5-methoxypyrimidine-4-carboxylate] here?
Answer: C (75-84)

Question: And the “Visual Growth Reduction (%) 10 Days After Application ECHCG” value [10]?
Answer: C (75-84)

Question: What about the “Visual Growth Reduction (%) 10 Days After Application HELAN” value [11] of the same compound?
Answer: C (75-84)

Question: And the “Visual Growth Reduction (%) 10 Days After Application IPOHE” value [12]?
Answer: C (75-84)

Question: And the “Visual Growth Reduction (%) 10 Days After Application SETFA” value [13]?
Answer: C (75-84)
